Reference: patent publication US20260035339A1, “TETRAHYDRONAPHTHALENE DERIVATIVE” (ATRANSEN PHARMA LTD., priority 2022, published 2026)

Experiments:
Assay type in all cases: cell-based
human LAT1 [1] = target: T1, human LAT1 (Homo sapiens, UniProt Q01650); test: Leucine uptake persistence inhibitory effect after compound removal in human-LAT1 highly expressing cell line; conditions: 20 μM compound for 30 minutes, removed, uptake measured 30 minutes later
Description: The uptake of [^14C]L-leucine remaining after the compound of the present invention was caused to act in advance and removed in the human-LAT1 highly expressing cell line was examined. In the same manner as in the uptake inhibition test, the cell line was seeded in a 24-well plate, and an MEM (Minimum Essential Medium) medium containing 20 μM of the compound (racemic form) was added to the wells and allowed to act for 30 minutes. An MEM medium containing no compound was used as a control. After the compound was caused to act, the cells were washed 3 times with the MEM medium and cultured in the MEM medium for an additional 30 minutes. Thereafter, washing was performed 3 times with Na^+Free-HBSS, and 1 μM of [^14C]L-leucine dissolved in Na^+Free-HBSS was taken up for 1 minute. The cells were washed 3 times with ice-cooled Na^+Free-HBSS, and the amount of [^14C]L-leucine taken up in the cells was determined with a liquid scintillator. In the same manner as in other tests, the amount of protein in the cell fluid was measured, and the uptake amount of [^14C]L-leucine per 1 mg of protein in the cell fluid per minute was determined.

[2] = tested on: Mouse colorectal cancer-derived CT26 cells; test: Cell proliferation inhibitory effect using mouse colorectal cancer cells (CCK-8 assay); conditions: 72 hours compound treatment, read-out: Evaluation of IC50 (proliferation inhibition rate of 50%)
Description: Mouse colorectal cancer-derived CT26 cells were adjusted to […], seeded in a 96-well plate at 1000 cells/well, and cultured in a 10% fetal bovine serum-added RPMI 1640 medium at 5% CO2 and 37° C. The culture medium was changed 24 hours after the start of the culture, and the medium containing the compound of Example was replaced to examine the action of the compound on cell proliferation. As the compound, a concentration of 0.01, 0.03, 0.1, 0.3, 1, 3, 10, or 30 μM was used. As a control, the cells were cultured in a medium containing no compound. The number of cells was evaluated by CCK-8 assay (Cell Counting Kit-8, DOJINDO LABORATORIES) 72 hours after the start of the compound treatment, and the compound concentration (IC50 value) giving a proliferation inhibition rate of 50% as compared with the control was calculated.

human LAT1 [3] = target: T1, human LAT1; test: [14C]L-leucine uptake inhibition test using human-LAT1 stably expressing HEK293 cell line; set-up: having full-length cDNA of human LAT1 or LAT2 inserted under a promoter of CMV; expressed in transfected cells; key to Assay Data: degree of [14C]L-leucine uptake inhibition compared with BCH: a test compound having a higher inhibitory effect than BCH is denoted by A; a test compound having the same inhibitory effect as BCH is denoted by B; a test compound having a lower inhibitory effect than BCH is denoted by C; conditions: for Assay Data: degree of [14C]L-leucine uptake inhibition compared with BCH: compound (racemic form) and BCH at 0.1, 1.0, 10 μM, 1 μM [14C]L-leucine, 1 minute, Na+-free HBSS; for LAT1 inhibitory effect, compounds singled out (in words): same test as Table 1
Source text: HEK293 cells stably expressing human LAT1 and LAT2 were produced, respectively.
A shuttle vector DNA (LAT1: pcDNA3.1(+) -hLAT1, LAT2: pcDNA3.1(+) -hLAT2; expression vector pcDNA3.1 (+) was produced by Invitrogen Corp.) having ampicillin and neomycin resistance markers and having full-length cDNA of human LAT1 or LAT2 inserted under a promoter of CMV (cytomegalovirus) was constructed. This vector was transfected into the HEK293 cells by a method using Lipofectamine (registered trademark) 2000 (Invitrogen Corp.) according to the manufacturer's instructions. Thereafter, stably expressing cell clones of transgene were selected by a limiting dilution method in the presence of 0.9 mg/mL of Geneticin (registered trademark), and among the obtained cell clones, cell clones having a high uptake of [^14C]L-leucine and maintaining stable expression even after 10 passages were obtained. These cells were used for evaluating affinity and selectivity for LAT1 and LAT2.
1-1. It has been confirmed that LAT1 is responsible for L-leucine uptake in the absence of sodium ions in the human-LAT1 stably expressing HEK293 cell line. The human-LAT1 stably expressing HEK293 cell line was seeded in a 24-well plate at 1×10^5 Cell/Well, and the [^14C]L-leucine uptake inhibition test using the compound was performed after 48 hours. After the medium was removed and the cells were washed with Hank's balanced salt solution (Na^+-free HBSS) not containing sodium ions, the cells were cultured in Na^+-free HBSS for 10 minutes. Thereafter, 1 μM of [^14C]L-leucine was taken up in Na^+-free HBSS in the presence of a test compound (0.1, 1.0, 10, 0 μM in each case), which is a racemic form, for 1 minute, and then the cells were washed three times with ice-cooled Na^+-free HBSS. To the well, 500 μL of 1 M NaOH was added, and after 30 minutes, the cells were lysed, and the cell lysate was collected. The amount of [^14C]L-leucine in the cell lysate was determined using a liquid scintillator. The amount of protein in the cell lysate was measured using BCA Assay Kit (Thermofisher Scientific), and the uptake amount of [^14C]L-leucine per 1 mg of protein in the cell per minute was calculated.
The degree of LAT1 inhibition of the compound obtained in the present invention was compared with BCH (BCH, 2-aminobicyclo-(2,2,1)-heptane-2-carboxylic acid), which is an existing LAT1 inhibitor. In the [^14C]L-leucine uptake inhibition test described above, the degrees of inhibition of [^14C]L-leucine uptake inhibition using the compound (racemic form) obtained in Examples and BCH (0.1, 1.0, 10, 0 μM for both) were compared. […] In the table, a test compound having a higher inhibitory effect than BCH is denoted by A, a test compound having the same inhibitory effect as BCH is denoted by B, and a test compound having a lower inhibitory effect than BCH is denoted by C.

T1 sequence (Q01650 whole entry): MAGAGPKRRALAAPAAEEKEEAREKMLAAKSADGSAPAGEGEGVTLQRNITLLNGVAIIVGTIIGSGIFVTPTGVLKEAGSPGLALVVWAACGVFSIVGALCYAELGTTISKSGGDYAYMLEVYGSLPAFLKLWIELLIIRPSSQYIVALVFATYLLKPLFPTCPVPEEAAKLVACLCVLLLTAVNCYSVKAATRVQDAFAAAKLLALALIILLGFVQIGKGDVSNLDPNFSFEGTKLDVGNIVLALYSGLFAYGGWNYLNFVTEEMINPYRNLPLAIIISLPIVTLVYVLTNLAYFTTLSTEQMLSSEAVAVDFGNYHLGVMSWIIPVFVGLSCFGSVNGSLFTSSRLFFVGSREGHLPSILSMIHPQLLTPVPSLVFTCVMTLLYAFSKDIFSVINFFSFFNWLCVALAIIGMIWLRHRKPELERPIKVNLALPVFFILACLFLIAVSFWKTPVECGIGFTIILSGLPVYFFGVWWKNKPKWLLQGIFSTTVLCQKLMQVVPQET
T1 sequence (P08195 102-630 partner): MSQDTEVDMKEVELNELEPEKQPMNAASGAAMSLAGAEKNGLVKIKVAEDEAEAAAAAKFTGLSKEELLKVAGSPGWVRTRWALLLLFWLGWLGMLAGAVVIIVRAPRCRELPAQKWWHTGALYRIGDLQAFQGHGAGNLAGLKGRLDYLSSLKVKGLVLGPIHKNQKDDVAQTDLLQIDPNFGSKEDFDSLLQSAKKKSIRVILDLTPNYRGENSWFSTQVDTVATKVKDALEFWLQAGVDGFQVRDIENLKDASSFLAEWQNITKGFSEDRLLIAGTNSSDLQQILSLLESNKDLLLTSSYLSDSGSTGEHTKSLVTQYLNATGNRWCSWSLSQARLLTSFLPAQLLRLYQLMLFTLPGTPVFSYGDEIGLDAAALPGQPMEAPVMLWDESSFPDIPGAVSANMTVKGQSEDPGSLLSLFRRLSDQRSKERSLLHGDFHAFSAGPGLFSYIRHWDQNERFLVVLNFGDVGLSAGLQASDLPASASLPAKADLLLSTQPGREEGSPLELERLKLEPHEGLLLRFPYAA

SMILES | sustained LAT1 inhibitory effect as compared with Example 1-1 (human LAT1 [1]) | IC50 [2] [nM] | Assay Data: degree of [14C]L-leucine uptake inhibition compared with BCH (human LAT1 [3]) | LAT1 inhibitory effect, compounds singled out (in words) (human LAT1 [3])
Cl.NC1(C(=O)O)CCc2ccc(Oc3ccccc3-c3cccc(F)c3)cc2C1 (stereo not shown) [Example 1-30, 2-carboxy-7-((3′-fluoro-[1,1′-biphenyl]-2-yl)oxy)-1,2,3,4-tetrahydronaphthalene-2-aminium chloride] | more remarkable effect | ≤ 900 | A | 
Cl.NC1(C(=O)O)CCc2ccc(Oc3ccccc3-c3cccc(Cl)c3)cc2C1 (stereo not shown) [Example 1-33, 2-carboxy-7-((3′-chloro-[1,1′-biphenyl]-2-yl)oxy)-1,2,3,4-tetrahydronaphthalene-2-aminium chloride] | more remarkable effect | ≤ 900 | A | 
Cl.NC1(C(=O)O)CCc2ccc(Oc3ccccc3-c3cccc4ccccc34)cc2C1 (stereo not shown) [Example 1-35, 2-Carboxy-7-(2-(naphthalen-1-yl)phenoxy)-1,2,3,4-tetrahydronaphthalene-2-aminium chloride] | more remarkable effect | ≤ 900 | A | 
Cl.NC1(C(=O)O)CCc2ccc(Oc3ccccc3-c3cccc([N+](=O)[O-])c3)cc2C1 (stereo not shown) [Example 1-42, 2-carboxy-7-((3′-nitro-[1,1′-biphenyl]-2-yl)oxy)-1,2,3,4-tetrahydronaphthalene-2-aminium chloride] | more remarkable effect | ≤ 900 | A | 
Cc1cccc(-c2ccccc2Oc2ccc3c(c2)CC(N)(C(=O)O)CC3)c1.Cl (stereo not shown) [Example 1-43, 2-carboxy-7-((3′-methyl-[1,1′-biphenyl]-2-yl)oxy)-1,2,3,4-tetrahydronaphthalene-2-aminium chloride] | more remarkable effect | ≤ 900 | A | 
Cc1cccc2cccc(Oc3ccc4c(c3)CC(N)(C(=O)O)CC4)c12.Cl (stereo not shown) [Example 1-46, 2-carboxy-7-((8-methylnaphthalen-1-yl)oxy)-1,2,3,4-tetrahydronaphthalene-2-aminium chloride] | more remarkable effect | ≤ 900 | A | particularly remarkable effects
Cl.NC1(C(=O)O)CCc2ccc(Oc3ccccc3-c3ccc(F)c(Cl)c3)cc2C1 (stereo not shown) [Example 1-48, 2-carboxy-7-((3′-Chloro-4′-fluoro-[1,1′-biphenyl]-2-yl)oxy)-1,2,3,4-tetrahydronaphthalene-2-aminium chloride] | more remarkable effect | ≤ 900 | A | 
Cl.NC1(C(=O)O)CCc2ccc(Oc3ccccc3-c3cccc(F)c3Cl)cc2C1 (stereo not shown) [Example 1-49, 2-Carboxy-7-((2′-Chloro-3′-fluoro-[1,1′-biphenyl]-2-yl)oxy)-1,2,3,4-tetrahydronaphthalene-2-aminium chloride] | more remarkable effect | ≤ 900 | A | 
CN(C)c1cccc(-c2ccccc2Oc2ccc3c(c2)CC(N)(C(=O)O)CC3)c1.Cl.Cl (stereo not shown) [Example 1-50, 2-Carboxy-7-((3′-(Dimethylammonio)-[1,1′-biphenyl]-2-yl)oxy)-1,2,3,4-tetrahydronaphthalene-2-aminium chloride] | more remarkable effect | ≤ 900 | A | 
CSc1cccc(-c2ccccc2Oc2ccc3c(c2)CC(N)(C(=O)O)CC3)c1.Cl (stereo not shown) [Example 1-52, 2-Carboxy-7-((3′-(methylthio)-[1,1′-biphenyl]-2-yl)oxy)-1,2,3,4-tetrahydronaphthalene-2-aminium chloride] | more remarkable effect | ≤ 900 | A | 
Cl.NC1(C(=O)O)CCc2ccc(Oc3ccccc3-c3cccc(Cl)c3Cl)cc2C1 (stereo not shown) [Example 1-53, 2-carboxy-7-((2′,3′-dichloro-[1,1′-biphenyl]-2-yl)oxy)-1,2,3,4-tetrahydronaphthalene-2-aminium chloride] | more remarkable effect | ≤ 900 | A | particularly remarkable effects
Cl.NC1(C(=O)O)CCc2ccc(Oc3ccccc3-c3cc(F)cc(F)c3)cc2C1 (stereo not shown) [Example 1-65, 2-Carboxy-7-((3′,5′-difluoro-[1,1′-biphenyl]-2-yl)oxy)-1,2,3,4-tetrahydronaphthalene-2-aminium chloride] |  | ≤ 900 | A | 
Cl.NC1(C(=O)O)CCc2ccc(Oc3ccccc3-c3cc(F)cc(Cl)c3)cc2C1 (stereo not shown) [Example 1-66, 2-Carboxy-7-((3′-chloro-5′-fluoro-[1,1′-biphenyl]-2-yl)oxy)-1,2,3,4-tetrahydronaphthalene-2-aminium chloride] |  | ≤ 900 | A | 
NC1(C(=O)O)CCc2ccc(Oc3ccccc3-c3cc(F)cc(Cl)c3Cl)cc2C1 (stereo not shown) [Example 1-67, 2-carboxy-7-((2′,3′-dichloro-5′-fluoro-[1,1′-biphenyl]-2-yl)oxy)-1,2,3,4-tetrahydronaphthalene-2-aminium chloride] |  | ≤ 900 | A | 
Cl.NC1(C(=O)O)CCc2ccc(Oc3ccc([N+](=O)[O-])cc3-c3cccc4ccccc34)cc2C1 (stereo not shown) [Example 1-69, 2-Carboxy-7-(2-(naphthalen-1-yl)-4-nitrophenoxy)-1,2,3,4-tetrahydronaphthalene-2-aminium chloride] |  | ≤ 900 | A | 
